From ChEMBL document CHEMBL4834492, “Targeting the KRAS G12D Mutant as Potential Therapy in Cancer” (ACS Med Chem Lett, 2021)

What was measured:
A-427 = assay: Antiproliferative activity against human A427 cells expressing KRAS G12D mutant assessed as inhibition of cell growth measured after 3 days by CellTiter-Glo assay; format: functional, cell-based; conditions: A-427, 72 h
GTPase KRas = GTPase KRas (Homo sapiens, UniProt P01116, G12D); assay: Inhibition of recombinant his-tagged KRAS G12D mutant (unknown origin) expressed in Escherichia coli BL21(DE3) assessed as inhibition of GDP-GTP exchange rate in presence of recombinant SOS1/GMPPNP incubated for 1 hr by BODIPY fluorescence assay
Chain of GTPase KRas (P01116 whole entry G12D): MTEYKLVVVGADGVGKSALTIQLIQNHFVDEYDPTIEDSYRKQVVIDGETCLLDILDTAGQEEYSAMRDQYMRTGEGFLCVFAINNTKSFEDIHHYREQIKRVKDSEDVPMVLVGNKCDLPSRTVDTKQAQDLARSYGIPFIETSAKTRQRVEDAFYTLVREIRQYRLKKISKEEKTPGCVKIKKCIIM

| Compound | IC50 (A-427) [nM] | IC50 (GTPase KRas) [nM] |
| --- | --- | --- |
| CN(C)CC1(COc2nc3c(c(N4CC5CCC(C4)N5)n2)CCN(c2cc(O)cc4cccc(I)c24)C3)CC1 | 580 |  |
| CN1C[C@H](F)C[C@H]1COc1nc2c(c(N3CC4CCC(C3)N4)n1)CCN(c1cc(O)cc3cccc(Br)c13)C2 | 650 |  |
| Cc1cccc2cc(O)cc(N3CCc4c(nc(OCC5(CN6CCOCC6)CC5)nc4N4CC5CCC(C4)N5)C3)c12 | 550 |  |
| Oc1cc(N2CCc3c(nc(OCC4(CN5CCOCC5)CC4)nc3N3CC4CCC(C3)N4)C2)c2c(I)cccc2c1 | 350 |  |
| Oc1cc(N2CCc3c(nc(OCC4(CN5CCOCC5)CC4)nc3N3CC4CCC(C3)N4)C2)c2c(Br)cccc2c1 | 590 | 1.2 |
| Oc1cc(N2CCc3c(nc(OCC4(CN5CC[C@@H](F)C5)CC4)nc3N3CC4CCC(C3)N4)C2)c2c(Br)cccc2c1 | 540 |  |
| Oc1cc(N2CCc3c(nc(OCC4(CN5CC[C@@H](F)C5)CC4)nc3N3CC4CCC(C3)N4)C2)c2c(I)cccc2c1 | 470 |  |
| CN(C)CC1(COc2nc3c(c(N4CC5CCC(C4)N5)n2)CCN(c2cc(O)cc4cccc(Br)c24)C3)CC1(F)F (centres undefined) | 540 |  |
